Test results published in patent US6750228B1, “Aromatic sulfone hydroxamic acid metalloprotease inhibitor” (priority 1997, dated 2004).
pIC50: −log10 of the molar value. Like-named read-outs stand apart in the source and are kept apart here.

Columns and labels:
Experiment in all cases: biochemical
MMP-2 = biological target: T1, MMP-2 (Homo sapiens, UniProt P08253); conditions: for pIC50: recombinant human MMP-2, MCA peptide substrate 4 μM, pH 7.5, room temperature, read-out: MMP-2 IC50
T1 construct: made in house; provided by Dr. Gregory Goldberg, Washington University
T1 sequence (P08253 110-660): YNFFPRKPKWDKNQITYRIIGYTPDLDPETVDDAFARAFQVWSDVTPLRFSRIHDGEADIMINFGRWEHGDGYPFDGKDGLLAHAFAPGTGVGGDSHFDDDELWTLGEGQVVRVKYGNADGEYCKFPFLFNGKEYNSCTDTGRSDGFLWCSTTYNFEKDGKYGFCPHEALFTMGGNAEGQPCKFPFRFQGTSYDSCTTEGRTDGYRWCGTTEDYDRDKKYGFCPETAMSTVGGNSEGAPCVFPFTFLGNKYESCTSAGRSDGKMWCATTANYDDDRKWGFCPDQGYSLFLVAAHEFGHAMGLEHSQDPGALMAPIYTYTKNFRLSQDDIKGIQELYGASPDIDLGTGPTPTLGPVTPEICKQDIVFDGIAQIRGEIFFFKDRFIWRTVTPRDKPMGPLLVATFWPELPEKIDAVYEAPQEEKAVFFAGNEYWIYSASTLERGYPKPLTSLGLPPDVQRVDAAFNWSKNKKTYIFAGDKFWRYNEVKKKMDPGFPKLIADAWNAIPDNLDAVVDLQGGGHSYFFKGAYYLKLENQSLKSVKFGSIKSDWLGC
Procedure, shortened: (§1)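 Assay buffer 100 mM Tris-HCl, 100 mM NaCl, 10 mM CaCl2, pH 7.5. Activated MMP + inhibitor, 5 min RT; then methoxycoumarin peptide substrate, 4 μM final. Readout fluorescence; IC50 calculated.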

MMP-1 = biological target: T2, MMP-1 (Homo sapiens, UniProt P03956); conditions: read-out: MMP-1 IC50
T2 construct: made in house; host or cells: transfected HT-1080 cells (provided by Dr. Harold Welgus, Washington University)
T2 sequence (P03956 100-469): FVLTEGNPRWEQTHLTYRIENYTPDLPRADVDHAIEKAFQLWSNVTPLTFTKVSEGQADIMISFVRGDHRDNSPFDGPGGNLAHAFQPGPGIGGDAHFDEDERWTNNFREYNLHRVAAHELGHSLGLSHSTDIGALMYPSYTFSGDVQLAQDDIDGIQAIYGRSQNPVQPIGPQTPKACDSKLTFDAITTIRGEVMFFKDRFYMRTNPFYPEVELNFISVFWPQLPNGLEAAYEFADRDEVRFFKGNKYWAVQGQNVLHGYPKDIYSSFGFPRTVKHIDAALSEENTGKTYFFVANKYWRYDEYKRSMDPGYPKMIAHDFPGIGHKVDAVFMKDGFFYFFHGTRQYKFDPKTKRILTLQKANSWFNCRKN
Procedure, shortened: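 APMA- or trypsin-activated enzymes were preincubated with inhibitor for 5 min at room temperature, then the fluorogenic substrate MCA-Pro-Leu-Gly-Leu-Dpa-Ala-Arg-NH2 was added to a final 4 μM.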

MMP-13 = biological target: T3, MMP-13 (Homo sapiens, UniProt P45452); conditions: for pIC50: read-out: MMP-13 IC50
T3 construct: made in house; host or cells: baculovirus / insect cells
Procedure, shortened: as §1

[1] = recombinant human MMP-1, MCA peptide substrate 4 μM, pH 7.5, room temperature
[2] = recombinant human MMP-13, MCA peptide substrate 4 μM, pH 7.5, room temperature

Structure (SMILES) | pIC50 (MMP-2) | pIC50 (MMP-1; [1]) | pIC50 (MMP-13; [2]) | IC50 (MMP-2; MMP-2 IC50 (nM)) [nM] | pIC50 (MMP-1) | pIC50 (MMP-13) | IC50 (MMP-13; MMP-13 IC50 (nM)) [nM]
COc1ccc(C(=O)C2CCN(c3ccc(S(=O)(=O)C4(C(=O)NO)CCOCC4)cc3)CC2)cc1F [Example 735] | 6.10 | < 5.00 | 8.05 |  |  |  | 
O=C(NO)C1(S(=O)(=O)c2ccc(N3CCCC(COCc4ccc(Cl)c(Cl)c4)C3)cc2)CCOCC1 (stereo not drawn) [Example 508] | 6.68 | < 5.00 | 7.71 |  |  |  | 
O=C(CN1CCCC1)N1CCC(C(=O)NO)(S(=O)(=O)c2ccc(Oc3ccc(C(F)(F)F)cc3)cc2)CC1 [Example 326] | 9.35 | < 5.00 | 9.22 |  |  |  | 
CC1CC(C)CN(C(=O)C2CCN(c3ccc(S(=O)(=O)C4(C(=O)NO)CCN(C(=O)CN5CCC(C(N)=O)CC5)CC4)cc3)CC2)C1 (stereo not drawn) [Example 300] | < 5.00 | < 5.00 | 7.43 |  |  |  | 
O=C(NO)C1(S(=O)(=O)c2ccc(Oc3ccc(OC(F)(F)F)cc3)cc2)CCN(S(=O)(=O)C(F)(F)F)CC1 [Example 197] | > 10.00 | < 5.00 | 8.57 |  |  |  | 
O=C(NO)C1(S(=O)(=O)c2ccc(Oc3ccc(OC(F)(F)F)cc3)cc2)CCN(S(=O)(=O)Cc2ccccc2)CC1 [Example 195] | 9.70 | < 5.00 | 9.00 |  |  |  | 
CC1(C)CC2CC(C)(CN2c2ccc(S(=O)(=O)C3(C(=O)NO)CCOCC3)cc2)C1 (stereo not drawn) [Example 214] | 5.46 | < 5.00 | 5.31 |  |  |  | 
O=C(NO)C1(S(=O)(=O)c2ccc(N3CCN(S(=O)(=O)c4ccccc4OC(F)(F)F)CC3)cc2)CCOCC1 [Example 673] | 6.34 | < 5.00 | 7.83 |  |  |  | 
O=C(C1CCN(c2ccc(S(=O)(=O)C3(C(=O)NO)CCOCC3)cc2)CC1)N1CCN(c2ccc(F)cc2)CC1 [Example 25] |  |  |  | 1600 | < 5.00 | 8.22 | 
CC1CC(C)CN(C(=O)C2CCN(c3ccc(S(=O)(=O)C4(C(=O)NO)CCN(C(=O)CNCCO)CC4)cc3)CC2)C1 (stereo not drawn) [Example 286] | < 5.00 | < 5.00 | 7.22 |  |  |  | 
O=C(NO)C1(S(=O)(=O)c2ccc(N3CCCC(COCc4cccc(C(F)(F)F)c4)C3)cc2)CCOCC1 (stereo not drawn) [Example 507] | 6.68 | < 5.00 | 7.80 |  |  |  | 
O=C(NO)C1(S(=O)(=O)c2ccc(N3CCC(OCc4ccccc4F)CC3)cc2)CCOCC1 [Example 576] | 7.11 | < 5.00 | 8.06 |  |  |  | 
CSc1nccc(N2CCC(C(=O)NO)(S(=O)(=O)c3ccc(Oc4ccc(OC(F)(F)F)cc4)cc3)CC2)n1 [Example 410] | 9.60 | < 5.00 | 9.22 |  |  |  | 
O=C(NO)C1(S(=O)(=O)c2ccc(N3CCCC3)cc2)CCOCC1 [Example 81] | 6.80 | < 5.00 | 7.22 |  |  |  | 
O=C(c1cccc(C(F)(F)F)c1)C1CCN(c2ccc(S(=O)(=O)C3(C(=O)NO)CCOCC3)cc2)CC1 [Example 727] | 6.62 | < 5.00 | 7.46 |  |  |  | 
Cc1ccc(N2CCN(c3ccc(S(=O)(=O)C4(C(=O)NO)CCOCC4)cc3)CC2)cc1 [Example 535] | 7.46 | < 5.00 |  |  |  |  | 1.9
O=C(c1ccco1)N1CCN(c2ccc(S(=O)(=O)C3(C(=O)NO)CCOCC3)cc2)CC1 [Example 537] | 7.26 | 5.28 | 7.15 |  |  |  | 
COc1ccccc1COC1CCC(Oc2ccc(S(=O)(=O)C3(C(=O)NO)CCOCC3)cc2)C1 (stereo not drawn) [Example 740] | 6.76 | < 5.00 | 7.21 |  |  |  | 

Structure (SMILES) | pIC50 (MMP-2) | pIC50 (MMP-1; [1]) | pIC50 (MMP-13; [2]) | IC50 (MMP-2; MMP-2 IC50 (nM)) [nM] | pIC50 (MMP-1) | pIC50 (MMP-13) | IC50 (MMP-13; MMP-13 IC50 (nM)) [nM]
O=C(NO)C1(S(=O)(=O)c2ccc(N3CC[C@@H](COCc4ccc(F)cc4)C3)cc2)CCOCC1 [Example 526] | < 5.00 | < 5.00 | < 5.00 |  |  |  | 
CN1CCN(CC(=O)N2CCC(C(=O)NO)(S(=O)(=O)c3ccc(Oc4ccc(C(F)(F)F)cc4)cc3)CC2)CC1 [Example 324] | 9.40 | < 5.00 | 9.15 |  |  |  | 
CCCN(CCCCC(=O)N1CCC(C(=O)NO)(S(=O)(=O)c2ccc(Oc3ccc(C(F)(F)F)cc3)cc2)CC1)CC1CC1 [Example 346] | 9.70 | < 5.00 | 8.92 |  |  |  | 
O=C(NO)C1(S(=O)(=O)c2ccc(Oc3ccc(OC(F)(F)F)cc3)cc2)CCSCC1 [Example 147] | 9.70 | 5.11 | 9.40 |  |  |  | 
O=C(NO)C1(S(=O)(=O)c2ccc(Oc3ccc(OC(F)(F)F)cc3)cc2)CCN(C(=S)Nc2cccnc2)CC1 [Example 201] | 9.70 | < 5.00 | 9.52 |  |  |  | 
O=C(NO)C1(S(=O)(=O)c2ccc(N3CCC(OCc4ccncc4)CC3)cc2)CCOCC1 [Example 577] | 5.66 | < 5.00 | 6.97 |  |  |  | 
CCc1cccc([C@@H](C)C2CCN(c3ccc(S(=O)(=O)C4(C(=O)NO)CCOCC4)cc3)CC2)c1 [Example 831] | 6.77 | < 5.00 | 8.64 |  |  |  | 
O=C(c1cccc(OC(F)(F)F)c1)C1CCN(c2ccc(S(=O)(=O)C3(C(=O)NO)CCOCC3)cc2)CC1 [Example 725] | 6.68 | < 5.00 | 7.60 |  |  |  | 
CC(C)(Cl)CC(=O)C1CCN(c2ccc(S(=O)(=O)C3(C(=O)NO)CCOCC3)cc2)CC1 [Example 760] | 7.60 | < 5.00 | 8.22 |  |  |  | 
N#Cc1ccccc1COC1CCN(c2ccc(S(=O)(=O)C3(C(=O)NO)CCOCC3)cc2)CC1 [Example 559] | 7.10 | < 5.00 | 8.14 |  |  |  | 
CCCCOC1CCN(c2ccc(S(=O)(=O)C3(C(=O)NO)CCN(C(=O)OC(C)(C)C)CC3)cc2)CC1 [Example 442] | 6.68 | < 5.00 | 8.00 |  |  |  | 
O=C(NO)C1(S(=O)(=O)c2ccc(N3CCC(OCc4ccc(COc5ccccc5)cc4)CC3)cc2)CCOCC1 [Example 613] | 7.51 | < 5.00 | 8.10 |  |  |  | 
O=C(NO)C1(S(=O)(=O)c2ccc(N3CCC(OCc4ccc(COCC(F)(F)F)cc4)CC3)cc2)CCOCC1 [Example 607] | 6.66 | < 5.00 | 8.54 |  |  |  | 
O=C(NO)C1(S(=O)(=O)c2ccc(Oc3ccc(C(F)(F)F)cc3)cc2)CCN(S(=O)(=O)c2ccc(C(F)(F)F)cc2)CC1 [Example 143] | 7.84 | < 5.00 | 7.66 |  |  |  | 
CC1CCCN(c2ccc(S(=O)(=O)C3(C(=O)NO)CCOCC3)cc2)C1 (stereo not drawn) [Example 496] | 6.70 | < 5.00 | 7.51 |  |  |  | 
CCCCOc1cccc(S(=O)(=O)N2CC(Oc3ccc(S(=O)(=O)C4(C(=O)NO)CCOCC4)cc3)C2)c1 [Example 830] | 5.68 | < 5.00 | 7.75 |  |  |  | 
C[C@@H]1C[C@H](C)CN(C(=O)C2CCN(c3ccc(S(=O)(=O)C4(C(=O)NO)CCN(C(=O)OC(C)(C)C)CC4)cc3)CC2)C1 [Example 241, rel-1,1-Dimethylethyl 4-[[4-[4-[[(3R,5S)-3,5-Dimethyl-1-piperidinyl]carbonyl]-1-piperidinyl]-phenyl]sulfonyl]-4-[(hydroxyamino)carbonyl]-1-piperidinecarboxylate] | < 5.00 | < 5.00 | 8.32 |  |  |  | 
CC(=O)N1CCN(c2ccc(S(=O)(=O)C3(C(=O)NO)CCOCC3)cc2)CC1 [Example 539] | 6.46 | < 5.00 | 6.57 |  |  |  | 
